# Reference: patent publication US20260355199A1, “COMPOSITIONS AND METHODS FOR TREATING OR PREVENTING NONALCOHOLIC STEATOHEPATITIS (NASH), ANOREXIA, DEPRESSION, ENDOMETRIOSIS, AND OTHER DISEASES OR DISORDERS” (priority 2022, published 2026)
# “Also recorded” adds a separate entry of the source.
# Legend:
# Bcl2l11, Bid and Pmaip1 = assay: Pro-apoptosis gene expression in mouse peritoneal macrophages; format: cell-based; conditions: TGF-b1 primed mouse peritoneal macrophages, 10 μM, 48 h
# Protocol: For cultured mouse peritoneal macrophages, cells were primed with 30 ng/ml of TGF-β1 (R&D Systems, 7666-MB0-005) for 48 h (to increase TET3 expression) before Bobcat339 treatment. Bobcat339 (or DMSO) was added at a final concentration of 10 μM, followed by RNA and protein extraction at time points indicated in the figure legends.
# Total RNAs were extracted from cells using PureLink RNA Mini Kit. 0.5-1 μg total RNA was reverse transcribed to cDNA in a reaction volume of 20 μL using PrimeScript RT Reagent Kit. Real-time quantitative PCR was performed in a 15 μL reaction volume containing 0.5-1 μL of cDNA using SsoAdvanced Universal SYBR Green Supermix in a Bio-Rad iCycler. Gene expression levels were normalized against RPLP0.
# TET3 [1] = assay: TET3 protein in SH-SY5Y human neuronal cells; format: cell-based
# Text: Mouse GT1-7 hypothalamic neuronal cell line (Sigma-Aldrich, SCC116) and human SH-SY5Y neuroblastoma cell line (Sigma Aldrich, 94030304) were purchased and cultured according to the manufacturers' instructions. Purified Ad-TET3 adenovirus (Ad-FLAG.h-TET3, ADV-225322, Vector Biolabs) expressing human TET3 from a CMV promoter and Ad-GFP control adenovirus (1060, Vector Biolabs) were purchased.
# For Bobcat339 treatment (FIG. 15A and FIG. 15B), GT1-7 cells grown in 24-well plates at 2×10^5 cells/well were incubated with vehicle or Bobcat339 at a final concentration of 10 μM for 6 h, followed by RNA and protein extractions. For TET3 protein stability assay (FIG. 15B), GT1-7 cells in 24-well plates at 2×10^5 cells/well were incubated with vehicle or Bobcat339 at a final concentration of 10 μM for 3 hours, followed by addition of cycloheximide (CHX, Cell Signaling, 2112) at a final concentration of […] in the presence of 10 μM of Bobcat339. Proteins were harvested at 0, 1, 2, and 3 hours after addition of CHX. For TET3 expression restoration experiments (FIG. 15C and FIG. 15D), GT1-7 or SH-SY5Y cells seeded in 24-well plates at 2×10^5 cells/well were infected with Ad-GFP or Ad-TET3 at 4000 gc/cell. Following 16 h of infection, vehicle or Bobcat339 were added at a final concentration of 10 μM. Protein and RNA were isolated 48 h later and analyzed. […]
# TET3 [2] = assay: TET3 protein stability (cycloheximide time course) in GT1-7 cells; format: cell-based; conditions: 10 μM, with cycloheximide; mouse neuronal cells
# Protocol: For Bobcat339 treatment (FIG. 15A and FIG. 15B), GT1-7 cells grown in 24-well plates at 2×10^5 cells/well were incubated with vehicle or Bobcat339 at a final concentration of 10 μM for 6 h, followed by RNA and protein extractions. For TET3 protein stability assay (FIG. 15B), GT1-7 cells in 24-well plates at 2×10^5 cells/well were incubated with vehicle or Bobcat339 at a final concentration of 10 μM for 3 hours, followed by addition of cycloheximide (CHX, Cell Signaling, 2112) at a final concentration of […] in the presence of 10 μM of Bobcat339. Proteins were harvested at 0, 1, 2, and 3 hours after addition of CHX. For TET3 expression restoration experiments (FIG. 15C and FIG. 15D), GT1-7 or SH-SY5Y cells seeded in 24-well plates at 2×10^5 cells/well were infected with Ad-GFP or Ad-TET3 at 4000 gc/cell. Following 16 h of infection, vehicle or Bobcat339 were added at a final concentration of 10 μM. Protein and RNA were isolated 48 h later and analyzed.
# Plasma corticosterone = format: in vivo, mouse; conditions: ABA mice
# Protocol: For corticosterone, blood samples were obtained via retroorbital bleeding between 19:00 and 20:00. For alanine transaminase, aspartate transaminase and bilirubin, blood samples were collected by cardiac puncture of terminally anesthetized animals. All blood samples were collected in EDTA tubes (Microtainer with K2EDTA, BD, 365974). The tubes were centrifuged at 2,000×g at 4 °C for 20 min, and plasma was collected and stored at −80 °C until use. Plasma corticosterone levels were measured using Corticosterone ELISA kit (Enzo, ADI-900-097) according to the manufacturer's instructions. Kits used to measure alanine transaminase (EALT-100) and aspartate transaminase (EASTR-100) were purchased from Bioassay Systems. The bilirubin assay kit (MAK126) was purchased from Sigma Aldrich.
# [3] = Liver toxicity (plasma ALT, AST, bilirubin) in endometriosis mice; format: in vivo, mouse; conditions: 6 weeks; for liver toxicity (plasma ALT, AST, bilirubin): 2.5 mg/kg i.p. once a week
# Protocol: Blood samples were collected in EDTA tubes (Microtainer with K2EDTA, BD, 365974) by cardiac puncture of terminally anesthetized animals. The tubes were centrifuged at 2,000×g at 4 °C for 20 min, and plasma was collected and stored at −80 °C until use. Blood chemistry were measured according to the manufacturer's instructions. Kits used to measure alanine transaminase (EALT-100) and aspartate transaminase (EASTR-100) were purchased from Bioassay Systems. The bilirubin assay kit (MAK126) was purchased from Sigma Aldrich.
# [4] = Tolerability of Bobcat339 in mice; format: in vivo, mouse; conditions: disease models in mice
smiles,measurement,setting,value
"Nc1nc(=O)n(-c2cccc(-c3ccccc3)c2)cc1Cl [Bobcat339, 4-Amino-1-[1,1′-biphenyl]-3-yl-5-chloro-2(1H)-pyrimidinone]","Bcl2l11, Bid and Pmaip1 expression","Bcl2l11, Bid and Pmaip1",an upregulation of all three pro-apoptosis genes
same,TET3 protein level / degradation,TET3 [1],induced protein degradation of TET3
same,TET3 protein stability,TET3 [2],induced protein degradation of TET3; also recorded: less stable
same,plasma cortisol levels,Plasma corticosterone,reduced plasma cortisol levels
same,"liver toxicity (plasma ALT, AST, bilirubin)",[3],no evidence of liver toxicity; also recorded: no differences between the groups
same,"liver toxicity (plasma ALT, AST, bilirubin)",[3]; listed as Bobcat,no differences between the groups
same,liver toxicity,[3]; 3 mg/kg i.p. once a week,no evidence of liver toxicity
same,side effects / toxicity,[4],without discernible toxicity; also recorded: without discernible side effects; also recorded: no discernible toxicity
